# Test results as given in ChEMBL document CHEMBL3286303, “Synthesis and in vitro antiproliferative evaluation of novel N-alkylated 6-isobutyl- and propyl pyrimidine derivatives” (Bioorg Med Chem Lett, 2014).
# pIC50: −log10 of the molar value.
# Assays:
# MCF7 = assay: Antiproliferative activity against human MCF7 cells after 72 hrs by MTT assay; type: functional, cell-based; details: MCF7, 72 h
# [1] = Antiproliferative activity against human MIAPaCa2 cells after 72 hrs by MTT assay; type: functional, cell-based; details: MIA PaCa-2, 72 h
# HeLa = assay: Antiproliferative activity against human HeLa cells after 72 hrs by MTT assay; type: functional, cell-based
# WI-38 = assay: Antiproliferative activity against human WI38 cells after 72 hrs by MTT assay; type: cell-based; details: Homo sapiens, WI-38, 72 h
# SW-620 = assay: Antiproliferative activity against human SW620 cells after 72 hrs by MTT assay; type: functional, cell-based; details: SW-620, 72 h
# K562 = assay: Antiproliferative activity against apoptosis-resistant, Philadelphia chromosome-positive human K562 cells after 72 hrs by PrestoBlue colorimetric assay; type: functional, cell-based; details: K562, 72 h
# BJ = assay: Antiproliferative activity against human BJ cells after 72 hrs by PrestoBlue colorimetric assay; type: cell-based
# HepG2 = assay: Antiproliferative activity against human HepG2 cells after 72 hrs by MTT assay; type: functional, cell-based; details: HepG2, 72 h
# MCR [2] = assay: Antiproliferative activity against human MCR cells after 72 hrs by MTT assay
# MCR [3] = assay: Antiproliferative activity against human MCR cells after 72 hrs by MTT assay; type: cell-based; details: MCR
Compound,pIC50 (MCF7),pIC50 (HeLa),pIC50 (SW-620),pIC50 (K562),pIC50 (HepG2),pIC50 [1],pIC50 (WI-38),pIC50 (BJ),pIC50 (MCR [2]),pIC50 (MCR [3])
COc1cc(CC(O)(COCc2ccccc2)COCc2ccccc2)nc(OC)n1,< 4.00,< 4.00,< 4.00,–,< 4.00,< 4.00,–,–,< 4.00,–
Cc1c(CC(O)COCc2ccccc2)[nH]c(=O)[nH]c1=O (stereo unspecified),< 4.00,< 4.00,< 4.00,–,< 4.00,< 4.00,–,–,< 4.00,–
COCn1c(CC(O)(COCc2ccccc2)COCc2ccccc2)cc(=O)[nH]c1=O,< 4.00,< 4.00,< 4.00,–,< 4.00,< 4.00,–,–,< 4.00,–
C[Si](C)(C)CCOCn1c(CC(O)CO)cc(=O)[nH]c1=O (stereo unspecified),< 4.00,< 4.00,< 4.00,–,< 4.00,< 4.00,–,–,< 4.00,–
C[Si](C)(C)CCOCn1c(CC(O)COCc2ccccc2)cc(=O)[nH]c1=O (stereo unspecified),< 4.00,< 4.00,< 4.00,–,< 4.00,< 4.00,–,–,< 4.00,–
COc1cc(CC(O)COCc2ccccc2)nc(OC)n1 (stereo unspecified),< 4.00,< 4.00,< 4.00,–,< 4.00,< 4.00,–,–,< 4.00,–
COc1nc(CC(O)COCc2ccccc2)c(C)c(OC)n1 (stereo unspecified),< 4.00,< 4.00,< 4.00,–,< 4.00,< 4.00,–,–,–,< 4.00
COc1nc(CC(O)(COCc2ccccc2)COCc2ccccc2)c(C)c(OC)n1,–,–,–,–,–,5.21,–,–,–,–
O=c1cc(CC(O)(COCc2ccccc2)COCc2ccccc2)[nH]c(=O)[nH]1,< 4.00,< 4.00,< 4.00,–,< 4.00,< 4.00,–,–,< 4.00,–

# Continued, in another order:
pIC50 (MCF7),pIC50 (HeLa),pIC50 (SW-620),pIC50 (K562),pIC50 (HepG2),Compound,pIC50 [1],pIC50 (WI-38),pIC50 (BJ),pIC50 (MCR [2]),pIC50 (MCR [3])
4.14,4.53,4.14,–,–,COCn1c(CC(COCc2ccccc2)COCc2ccccc2)c(C)c(=O)[nH]c1=O,4.25,4.51,–,–,–
–,–,–,5.62,–,Cc1cn(-c2cc(NC(=O)c3ccc(C)c(Nc4nccc(-c5cccnc5)n4)c3)cc(C(F)(F)F)c2)cn1 [NILOTINIB],–,–,4.89,–,–
4.67,4.77,4.59,–,–,COCn1c(=O)[nH]c(CC(COCc2ccccc2)COCc2ccccc2)c(C)c1=O,4.56,4.71,–,–,–
< 4.00,< 4.00,< 4.00,–,< 4.00,Cc1c(CC(O)COCc2ccccc2)n(COCC[Si](C)(C)C)c(=O)[nH]c1=O (stereo unspecified),< 4.00,–,–,< 4.00,–
< 4.00,< 4.00,< 4.00,–,< 4.00,Cc1c(CC(O)CO)n(COCC[Si](C)(C)C)c(=O)[nH]c1=O (stereo unspecified),< 4.00,–,–,< 4.00,–
< 4.00,< 4.00,< 4.00,–,< 4.00,COCn1c(CC(O)CO)c(C)c(=O)[nH]c1=O (stereo unspecified),< 4.00,–,–,< 4.00,–
< 4.00,< 4.00,< 4.00,–,< 4.00,C[Si](C)(C)CCOCn1c(CC(O)(COCc2ccccc2)COCc2ccccc2)cc(=O)[nH]c1=O,< 4.00,–,–,< 4.00,–
< 4.00,< 4.00,< 4.00,–,< 4.00,O=c1cc(CC(O)COCc2ccccc2)[nH]c(=O)[nH]1 (stereo unspecified),< 4.00,–,–,< 4.00,–
< 4.00,< 4.00,< 4.00,–,< 4.00,COCn1c(CC(O)COCc2ccccc2)c(C)c(=O)[nH]c1=O (stereo unspecified),< 4.00,–,–,< 4.00,–
< 4.00,< 4.00,< 4.00,–,< 4.00,COCn1c(CC(COCc2ccccc2)COCc2ccccc2)cc(=O)[nH]c1=O,< 4.00,–,–,< 4.00,–
< 4.00,< 4.00,< 4.00,–,< 4.00,C[Si](C)(C)CCOCn1c(CC(O)(CO)CO)cc(=O)[nH]c1=O,< 4.00,–,–,< 4.00,–
6.52,5.46,< 4.00,–,6.52,COc1cc(CC(COCc2ccccc2)COCc2ccccc2)nc(OC)n1,–,–,–,4.73,–
< 4.00,< 4.00,< 4.00,–,< 4.00,O=c1cc(CC(COCc2ccccc2)COCc2ccccc2)[nH]c(=O)[nH]1,< 4.00,–,–,< 4.00,–
< 4.00,< 4.00,< 4.00,–,< 4.00,COCn1c(CC(O)(CO)CO)cc(=O)[nH]c1=O,< 4.00,–,–,< 4.00,–
